The results in this text go back to PMC5218480 (PLoS ONE, 2017).

This test deals with MV-4-11 cells. As to the kind of experiment: Gene expression microarray analysis (Affymetrix PrimeView) and GSEA. Format: cell-based, human. More on the design: RFU PODN (11730768_x_at) / Fold change /veh PODN (11730768_x_at) / RFU LINC00158 (11744669_a_at) / Fold change /veh LINC00158 (11744669_a_at) / RFU DUSP10 (11751237_a_at) / Fold change /veh DUSP10 (11751237_a_at) / RFU ID3 (11757404_x_at) / Fold change /veh ID3 (11757404_x_at) / RFU PLEKHG5 (11737974_s_at) / Fold change /veh PLEKHG5 (11737974_s_at) / RFU LRRC4B (11730491_at) / Fold change /veh LRRC4B (11730491_at) / RFU GIMAP4 (11747438_a_at) / Fold change /veh GIMAP4 (11747438_a_at) / RFU KRT8 (11758183_x_at) / Fold change /veh KRT8 (11758183_x_at) / RFU CNN1 (11734310_a_at) / Fold change /veh CNN1 (11734310_a_at) / RFU VPS37D (11726825_at) / Fold change /veh VPS37D (11726825_at) / RFU C10orf10 (11716522_x_at) / Fold change /veh C10orf10 (11716522_x_at) / RFU KIR2DL2 /// KIR2DL4 /// KIR2DL5A /// KIR2DL5B /// KIR2DS1 /// KIR2DS2 /// KIR2DS3 /// KIR2DS4 /// KIR3DL3 /// KIR3DL3 /// KIR3DS1 (11738374_at) / Fold change /veh KIR2DL2 /// KIR2DL4 /// KIR2DL5A /// KIR2DL5B /// KIR2DS1 /// KIR2DS2 /// KIR2DS3 /// KIR2DS4 /// KIR3DL3 /// KIR3DL3 /// KIR3DS1 (11738374_at) / RFU C1QL1 (11718748_at) / Fold change /veh C1QL1 (11718748_at) / RFU TMPRSS4 (11747572_a_at) / Fold change /veh TMPRSS4 (11747572_a_at) / RFU HAMP (11756126_x_at) / Fold change /veh HAMP (11756126_x_at) / RFU RNFT2 (11725882_a_at) / Fold change /veh RNFT2 (11725882_a_at) / RFU NR4A2 (11747474_a_at) / Fold change /veh NR4A2 (11747474_a_at) / RFU ABCC12 (11746883_a_at) / Fold change /veh ABCC12 (11746883_a_at) / RFU TMEM136 (11760407_x_at) / Fold change /veh TMEM136 (11760407_x_at) / RFU CLDN22 /// WWC2 (11732394_at) / Fold change /veh CLDN22 /// WWC2 (11732394_at) / RFU HLA-DPB1 (11760878_x_at) / Fold change /veh HLA-DPB1 (11760878_x_at) / RFU SPINT1 (11716480_a_at) / Fold change /veh SPINT1 (11716480_a_at) / RFU GAP43 (11754022_s_at) / Fold change /veh GAP43 (11754022_s_at) / RFU A4GNT (11735810_at) / Fold change /veh A4GNT (11735810_at) / RFU PRB3 (11715151_x_at) / Fold change /veh PRB3 (11715151_x_at) / RFU TUBB4B (11761932_at) / Fold change /veh TUBB4B (11761932_at) / RFU CAPN14 (11732068_a_at) / Fold change /veh CAPN14 (11732068_a_at) / RFU TMCC2 (11721928_a_at) / Fold change /veh TMCC2 (11721928_a_at) / RFU IRGQ (11745062_a_at) / Fold change /veh IRGQ (11745062_a_at) / RFU FAM174B (11720279_a_at) / Fold change /veh FAM174B (11720279_a_at) / RFU TMPRSS4 (11748680_a_at) / Fold change /veh TMPRSS4 (11748680_a_at) / RFU FAM212B (11763350_a_at) / Fold change /veh FAM212B (11763350_a_at) / RFU PLEKHG5 (11743358_a_at) / Fold change /veh PLEKHG5 (11743358_a_at) / RFU ZSCAN30 (11745921_a_at) / Fold change /veh ZSCAN30 (11745921_a_at) / RFU CMKLR1 (11741424_a_at) / Fold change /veh CMKLR1 (11741424_a_at) / RFU LOC101060620 /// MAPK8IP1 (11723275_at) / Fold change /veh LOC101060620 /// MAPK8IP1 (11723275_at) / RFU SPTSSB (11747773_x_at) / Fold change /veh SPTSSB (11747773_x_at) / RFU PRSS12 (11739890_at) / Fold change /veh PRSS12 (11739890_at) / RFU BIN1 (11741810_x_at) / Fold change /veh BIN1 (11741810_x_at) / RFU WNT11 (11732464_a_at) / Fold change /veh WNT11 (11732464_a_at) / RFU C10orf10 (11716521_a_at) / Fold change /veh C10orf10 (11716521_a_at) / RFU C5orf56 (11738089_at) / Fold change /veh C5orf56 (11738089_at) / RFU CYB561 (11721691_x_at) / Fold change /veh CYB561 (11721691_x_at) / RFU ANKRD19P (11752326_a_at) / Fold change /veh ANKRD19P (11752326_a_at) / RFU OR2T12 /// OR2T33 /// OR2T8 (11738714_s_at) / Fold change /veh OR2T12 /// OR2T33 /// OR2T8 (11738714_s_at) / RFU VCAN (11748164_a_at) / Fold change /veh VCAN (11748164_a_at) / RFU JSRP1 (11732532_at) / Fold change /veh JSRP1 (11732532_at) / RFU KRTAP10-11 (11738290_x_at) / Fold change /veh KRTAP10-11 (11738290_x_at) / RFU MYO3A (11730013_a_at) / Fold change /veh MYO3A (11730013_a_at) / RFU EBF3 (11725865_a_at) / Fold change /veh EBF3 (11725865_a_at) / RFU CAMK2N1 (11719241_x_at) / Fold change /veh CAMK2N1 (11719241_x_at) / RFU C5orf56 (11738088_a_at) / Fold change /veh C5orf56 (11738088_a_at) / RFU OLFML3 (11715873_a_at) / Fold change /veh OLFML3 (11715873_a_at) / RFU LOC100653217 /// NTM (11731650_a_at) / Fold change /veh LOC100653217 /// NTM (11731650_a_at) / RFU MAPK11 (11762145_a_at) / Fold change /veh MAPK11 (11762145_a_at) / RFU FIZ1 (11724087_x_at) / Fold change /veh FIZ1 (11724087_x_at) / RFU OASL (11726364_x_at) / Fold change /veh OASL (11726364_x_at) / RFU SOX15 (11748057_x_at) / Fold change /veh SOX15 (11748057_x_at) / RFU CD79A (11719716_a_at) / Fold change /veh CD79A (11719716_a_at) / RFU HIST1H1D (11736915_at) / Fold change /veh HIST1H1D (11736915_at) / RFU CASKIN2 (11723855_a_at) / Fold change /veh CASKIN2 (11723855_a_at) / RFU LOC730098 (11760151_x_at) / Fold change /veh LOC730098 (11760151_x_at) / RFU OR4N2 (11742367_at) / Fold change /veh OR4N2 (11742367_at) / RFU PRRT2 (11749266_a_at) / Fold change /veh PRRT2 (11749266_a_at) / RFU SNX32 (11753110_a_at) / Fold change /veh SNX32 (11753110_a_at) / RFU CDHR5 (11726645_a_at) / Fold change /veh CDHR5 (11726645_a_at) / RFU RCAN1 (11760418_a_at) / Fold change /veh RCAN1 (11760418_a_at) / RFU FAM167A (11723789_a_at) / Fold change /veh FAM167A (11723789_a_at) / RFU FAM26E (11764081_at) / Fold change /veh FAM26E (11764081_at) / RFU ISYNA1 (11749810_s_at) / Fold change /veh ISYNA1 (11749810_s_at) / RFU ACY1 (11761880_at) / Fold change /veh ACY1 (11761880_at) / RFU 11764098_at / Fold change /veh 11764098_at / RFU SAMD14 (11745864_x_at) / Fold change /veh SAMD14 (11745864_x_at) / RFU NPB (11741838_a_at) / Fold change /veh NPB (11741838_a_at) / RFU TMPRSS6 (11731388_a_at) / Fold change /veh TMPRSS6 (11731388_a_at) / RFU KRTAP10-2 (11738614_at) / Fold change /veh KRTAP10-2 (11738614_at) / RFU ARHGAP8 /// PRR5-ARHGAP8 (11727945_x_at) / Fold change /veh ARHGAP8 /// PRR5-ARHGAP8 (11727945_x_at) / RFU KRTAP5-7 /// NADSYN1 (11734609_at) / Fold change /veh KRTAP5-7 /// NADSYN1 (11734609_at) / RFU RASL12 (11751679_a_at) / Fold change /veh RASL12 (11751679_a_at) / RFU CDKN2B (11736163_a_at) / Fold change /veh CDKN2B (11736163_a_at) / RFU PRF1 (11729649_at) / Fold change /veh PRF1 (11729649_at) / RFU, ZNF638 /// ZNF638-IT1 / Fold change vs veh, ZNF638 /// ZNF638-IT1 / RFU, PANK3 / Fold change vs veh, PANK3 / RFU, SH3YL1 / Fold change vs veh, SH3YL1 / RFU, ZEB2 / Fold change vs veh, ZEB2 / RFU, NRIP1 / Fold change vs veh, NRIP1 / RFU, PTTG1IP / Fold change vs veh, PTTG1IP / RFU, CAPN2 / Fold change vs veh, CAPN2 / RFU, MED14 / Fold change vs veh, MED14 / RFU, SNORA58 / Fold change vs veh, SNORA58 / RFU, C1orf63 / Fold change vs veh, C1orf63 / RFU, LRRFIP1 / Fold change vs veh, LRRFIP1 / RFU, NDUFAF7 / Fold change vs veh, NDUFAF7 / RFU, SLC12A2 / Fold change vs veh, SLC12A2 / RFU, IBTK / Fold change vs veh, IBTK / RFU, ESF1 / Fold change vs veh, ESF1 / Fold change vs veh, TMEM50B / RFU, TAOK1 / Fold change vs veh, TAOK1 / RFU, ACBD3 / Fold change vs veh, ACBD3 / RFU, TMA16 / Fold change vs veh, TMA16 / RFU, RWDD3 / Fold change vs veh, RWDD3 / RFU, BCAT1 / Fold change vs veh, BCAT1 / RFU, EDEM3 / Fold change vs veh, EDEM3 / RFU, TMEM33 / Fold change vs veh, TMEM33 / RFU, WDR75 / Fold change vs veh, WDR75 / RFU, AHCTF1 / Fold change vs veh, AHCTF1 / RFU, TFRC / Fold change vs veh, TFRC / RFU, ZDHHC17 / Fold change vs veh, ZDHHC17 / RFU, NOM1 / Fold change vs veh, NOM1 / RFU, ARL8B / Fold change vs veh, ARL8B / RFU, ZBTB11 / Fold change vs veh, ZBTB11 / RFU, TAMM41 / Fold change vs veh, TAMM41 / RFU, KIAA1704 /// LOC100996395 / Fold change vs veh, KIAA1704 /// LOC100996395 / RFU, ING1 / Fold change vs veh, ING1 / RFU, TRMT61B / Fold change vs veh, TRMT61B / RFU, FUBP3 / Fold change vs veh, FUBP3 / RFU, TP53 / Fold change vs veh, TP53 / RFU, TNKS2 / Fold change vs veh, TNKS2 / RFU, ZFP14 / Fold change vs veh, ZFP14 / RFU, ACTR2 / Fold change vs veh, ACTR2 / RFU, PPP3R1 / Fold change vs veh, PPP3R1 / RFU, PIK3R1 / Fold change vs veh, PIK3R1 / RFU, HNRNPA1 / Fold change vs veh, HNRNPA1 / RFU, RNF170 / Fold change vs veh, RNF170 / RFU, ZNF28 / Fold change vs veh, ZNF28 / RFU, RNGTT / Fold change vs veh, RNGTT / RFU, OGT / Fold change vs veh, OGT / RFU, BRD1 / Fold change vs veh, BRD1 / RFU, MARS / Fold change vs veh, MARS / RFU, ZNF655 / Fold change vs veh, ZNF655 / RFU, FAHD1 / Fold change vs veh, FAHD1 / RFU, BDP1 / Fold change vs veh, BDP1 / RFU, LRRCC1 / Fold change vs veh, LRRCC1 / RFU, ARID1A / Fold change vs veh, ARID1A / RFU, ZNF146 / Fold change vs veh, ZNF146 / RFU, ZNF330 / Fold change vs veh, ZNF330 / RFU, GPN3 / Fold change vs veh, GPN3 / RFU, C9orf123 / Fold change vs veh, C9orf123 / RFU, N4BP2L2 / Fold change vs veh, N4BP2L2 / RFU, ARFIP1 / Fold change vs veh, ARFIP1 / RFU, FAM179B / Fold change vs veh, FAM179B / RFU, BCL10 / Fold change vs veh, BCL10 / RFU, UHRF1BP1L / Fold change vs veh, UHRF1BP1L / RFU, BET1 / Fold change vs veh, BET1 / RFU, CNOT2 / Fold change vs veh, CNOT2 / RFU, ZNF268 / Fold change vs veh, ZNF268 / Fold change vs veh, ZNF507 / RFU, DGCR2 / Fold change vs veh, DGCR2 / RFU, WDSUB1 / Fold change vs veh, WDSUB1 / Fold change vs veh, HSP90B1 /// MIR3652 / RFU, ADSS / Fold change vs veh, ADSS / RFU, GK / Fold change vs veh, GK / RFU, ZNF148 / Fold change vs veh, ZNF148 / RFU, TAF9 / Fold change vs veh, TAF9 / RFU, SLC1A5 / Fold change vs veh, SLC1A5 / RFU, SLMO2 / Fold change vs veh, SLMO2 / RFU, ABCC4 / Fold change vs veh, ABCC4 / RFU, LOC101060439 /// RAP1B / Fold change vs veh, LOC101060439 /// RAP1B / RFU, RFX7 / Fold change vs veh, RFX7 / RFU, GTPBP10 / Fold change vs veh, GTPBP10 / RFU, CNEP1R1 / Fold change vs veh, CNEP1R1 / RFU, BIVM-ERCC5 /// ERCC5 / Fold change vs veh, BIVM-ERCC5 /// ERCC5 / RFU, ILF3 / Fold change vs veh, ILF3 / RFU 11762660_at / Fold change /veh 11762660_at / RFU VCAN (11757783_s_at) / Fold change /veh VCAN (11757783_s_at) / RFU DDX43 (11728927_at) / Fold change /veh DDX43 (11728927_at) / RFU KRT8 (11758188_x_at) / Fold change /veh KRT8 (11758188_x_at) / RFU NKD1 (11759106_at) / Fold change /veh NKD1 (11759106_at) / RFU SRD5A1 (11742802_a_at) / Fold change /veh SRD5A1 (11742802_a_at) / RFU TPSAB1 /// TPSB2 (11721975_s_at) / Fold change /veh TPSAB1 /// TPSB2 (11721975_s_at) / RFU GSTM3 (11746129_a_at) / Fold change /veh GSTM3 (11746129_a_at) / RFU IL23R (11737362_x_at) / Fold change /veh IL23R (11737362_x_at) / RFU TMEM51 (11727254_a_at) / Fold change /veh TMEM51 (11727254_a_at) / RFU PIWIL2 (11732686_x_at) / Fold change /veh PIWIL2 (11732686_x_at) / RFU ORM1 (11744905_x_at) / Fold change /veh ORM1 (11744905_x_at) / RFU CCDC152 (11743942_at) / Fold change /veh CCDC152 (11743942_at) / RFU ECM1 (11717891_a_at) / Fold change /veh ECM1 (11717891_a_at) / RFU IL23R (11748794_a_at) / Fold change /veh IL23R (11748794_a_at) / RFU TNFAIP8L3 (11732012_x_at) / Fold change /veh TNFAIP8L3 (11732012_x_at) / RFU MBOAT4 (11741988_at) / Fold change /veh MBOAT4 (11741988_at) / RFU 11764193_at / Fold change /veh 11764193_at / RFU TMEM53 (11763286_at) / Fold change /veh TMEM53 (11763286_at) / RFU MAGEB2 (11727129_at) / Fold change /veh MAGEB2 (11727129_at) / RFU TMEM200A (11744735_a_at) / Fold change /veh TMEM200A (11744735_a_at) / RFU CCDC152 (11751479_a_at) / Fold change /veh CCDC152 (11751479_a_at) / RFU FAM211A (11726209_a_at) / Fold change /veh FAM211A (11726209_a_at) / RFU RGS16 (11746705_a_at) / Fold change /veh RGS16 (11746705_a_at) / RFU VCAN (11755009_s_at) / Fold change /veh VCAN (11755009_s_at) / RFU RHOB (11743442_s_at) / Fold change /veh RHOB (11743442_s_at) / RFU RGS16 (11720943_a_at) / Fold change /veh RGS16 (11720943_a_at) / RFU RGS16 (11720944_at) / Fold change /veh RGS16 (11720944_at) / RFU, VPS4B / Fold change vs veh, VPS4B / RFU, CREB1 / Fold change vs veh, CREB1 / RFU, DNAJC13 / Fold change vs veh, DNAJC13 / RFU, GNAQ / Fold change vs veh, GNAQ / RFU, CDK5R1 / Fold change vs veh, CDK5R1 / RFU, ZRANB3 / Fold change vs veh, ZRANB3 / RFU, CUL4A / Fold change vs veh, CUL4A / RFU, CCNY / Fold change vs veh, CCNY / RFU, UFL1 / Fold change vs veh, UFL1 / RFU, COG3 / Fold change vs veh, COG3 / RFU, DIAPH2 / Fold change vs veh, DIAPH2 / RFU, SKA2 / Fold change vs veh, SKA2 / RFU, AFF3 / Fold change vs veh, AFF3 / RFU, LMF1 / Fold change vs veh, LMF1 / RFU, IPO11 / Fold change vs veh, IPO11 / RFU, DFFB / Fold change vs veh, DFFB / RFU, FOXP1 / Fold change vs veh, FOXP1 / RFU, CARD8 / Fold change vs veh, CARD8 / RFU, STRN3 / Fold change vs veh, STRN3 / RFU, ADK / Fold change vs veh, ADK / RFU, RASSF2 / Fold change vs veh, RASSF2 / RFU, WIPF1 / Fold change vs veh, WIPF1 / RFU, LARP1B / Fold change vs veh, LARP1B / RFU, RASA1 / Fold change vs veh, RASA1 / RFU, RB1 / Fold change vs veh, RB1 / RFU, PPFIA1 / Fold change vs veh, PPFIA1 / RFU, MAT2A / Fold change vs veh, MAT2A / RFU, CCT5 / Fold change vs veh, CCT5 / RFU, WDR92 / Fold change vs veh, WDR92 / RFU, CUX1 / Fold change vs veh, CUX1 / RFU, TTC7A / Fold change vs veh, TTC7A / RFU, TMEM135 / Fold change vs veh, TMEM135 / RFU, DEPTOR / Fold change vs veh, DEPTOR / RFU, CPM / Fold change vs veh, CPM / RFU, DNAJB6 / Fold change vs veh, DNAJB6 / RFU, CACNA2D3 / Fold change vs veh, CACNA2D3 / RFU, DTX4 / Fold change vs veh, DTX4 / RFU, TFCP2 / Fold change vs veh, TFCP2 / RFU, GMCL1 /// GMCL1P1 / Fold change vs veh, GMCL1 /// GMCL1P1 / RFU, AEBP2 / Fold change vs veh, AEBP2 / RFU, SNHG1 /// SNORD22 /// SNORD25 /// SNORD26 /// SNORD27 /// SNORD28 /// SNORD29 /// SNORD31 / Fold change vs veh, SNHG1 /// SNORD22 /// SNORD25 /// SNORD26 /// SNORD27 /// SNORD28 /// SNORD29 /// SNORD31 / Fold change (Aza/veh), C12orf56 (ProbeSet 11735607_a_at) / Fold change (ACY-1035/veh), C12orf56 (ProbeSet 11735607_a_at) / Fold change (Aza/veh), FGFR1OP (ProbeSet 11751329_s_at) / Fold change (ACY-1035/veh), FGFR1OP (ProbeSet 11751329_s_at) / Fold change (Aza/veh), VPS36 (ProbeSet 11739960_a_at) / Fold change (ACY-1035/veh), VPS36 (ProbeSet 11739960_a_at) / RFU SYPL1 (11715823_x_at) / Fold change /veh SYPL1 (11715823_x_at) / RFU IGFBP7 (11715501_s_at) / Fold change /veh IGFBP7 (11715501_s_at) / RFU REEP3 (11722064_at) / Fold change /veh REEP3 (11722064_at) / RFU IGLL1 (11728026_x_at) / Fold change /veh IGLL1 (11728026_x_at): dose or concentration left out as unconfirmed. The following applies: ProbeSet 11727827_x_at; LIST B.

Regarding `Nc1ncn([C@@H]2O[C@H](CO)[C@@H](O)[C@H]2O)c(=O)n1` [azacitidine], the “Fold change vs veh, NDUFAF7” value turned out to be 0.98.
